Test results taken from article PMC9430770 (Microbiology Spectrum, 2022).

How the values were obtained:
C. albicans = test: Treatment in liquid YP medium with different carbon sources, then spotting on solid YPD; format: cell-based, Candida albicans; conditions: 128 μg/mL BE, 48 h
Description: FIG 2 Eno1 is a target of BE. (A) Schematic diagram of synthesis label-BE. Label-BE is synthesized by intermediate TPD-10a with benzyl bromide structure and triacetylated BE. (B) The molecular structure of label-BE. Label-BE contains a trifluoromethylphenyl diazo heterocyclic propylene group (marked by a red dotted line) as a photoaffinity group to enhance the binding of label-BE to its target proteins and an alkyne group (marked by a blue dotted line) connected with an azide group (from the TAMRA-N3 or biotin-N3) by a copper-catalyzed azide-alkyne cycloaddition. (C) The molecular structures of TAMRA-N3 and biotin-N3. Both of them contain azide groups (marked by a blue dotted line) connected with an alkyne group of label-BE to highlight the target proteins of label-BE. (D) The competition experiment with BE and label-BE used the TAMRA-N3 as a reporter. C. albicans cell lysates were preincubated with 100 μM BE (lane 2) or not (lane 3). Subsequently, the two groups were incubated with 10 μM label-BE and irradiated with UV light at 365 nm and then treated with TAMRA-N3. After separation of SDS-PAGE, label-BE-targeted proteins were visualized by in-gel fluorescence scanning. The three fluorescent bands in lane 3 (indicated by red triangles) were cut out and pooled and then analyzed by LC-MS/MS. (E) The competition experiment with BE and label-BE used the biotin-N3 as a reporter. In the following enrichment with streptavidin-conjugated beads and separation by SDS-PAGE gel, targets of label-BE were visualized by Coomassie blue staining. The brighter band in lane 3 (indicated by red triangle) was then cut out and analyzed by LC-MS/MS. […] C. albicans cells were first treated with 128 μg/mL BE in liquid YP medium with either 3-PG (32 mg/mL), pyruvate (32 mg/mL), glucose (20 mg/mL), or glycerol (2% [vol/vol]) for 48 h and then were spotted (1:10 dilution) onto solid YPD medium and photographed after 48 h of incubation at 30°C. The red termination line represents inhibition; 3-PG, 3-phosphoglyceric acid. (G) The competition experiment with BE and label-BE used the TAMRA-N3 as a reporter by E. coli cell lysates containing recombinant C. albicans Eno1.
In order to further identify which glycolysis-related protein is the target of BE, we investigated the antifungal activity of BE in the media containing different intermediate products of glycolysis. 3-Phosphoglyceric acid (3-PG) is a downstream intermediate of Pgk1-catalyzed glycolysis but an upstream intermediate of Eno1-catalyzed glycolysis, while pyruvate is a downstream intermediate of Eno1-catalyzed glycolysis (Fig. 2F). […]

[1] = target: mutant Eno1 (D263A, S269A, and K273A) (Candida albicans, UniProt P30575, D263A/K273A/S269A); test: SPR binding of BE to mutant Eno1
Chain of mutant Eno1 (D263A, S269A, and K273A) (P30575 whole entry D263A/S269A/K273A): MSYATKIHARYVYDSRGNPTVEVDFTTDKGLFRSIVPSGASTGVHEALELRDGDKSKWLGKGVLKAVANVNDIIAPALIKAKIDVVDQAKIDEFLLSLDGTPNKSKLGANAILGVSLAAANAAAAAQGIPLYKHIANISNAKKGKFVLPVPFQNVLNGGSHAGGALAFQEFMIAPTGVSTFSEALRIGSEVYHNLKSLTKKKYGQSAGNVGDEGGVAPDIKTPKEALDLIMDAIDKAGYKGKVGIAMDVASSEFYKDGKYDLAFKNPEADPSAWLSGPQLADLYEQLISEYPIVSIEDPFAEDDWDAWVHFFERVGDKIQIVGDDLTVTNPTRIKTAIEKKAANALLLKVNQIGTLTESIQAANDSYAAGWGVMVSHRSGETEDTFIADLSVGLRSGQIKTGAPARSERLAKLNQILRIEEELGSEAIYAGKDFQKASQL
Description: SPR, surface plasmon resonance; RU, response unit.
The benzene ring with hydroxyl group can form a cation-π interaction with K273 (Fig. 6C). To confirm that D263, S269, and K273 play crucial roles in interacting with BE, we have mutated these three amino acids (D263A, S269A, and K273A) in CaEno1.

hEno1 = target: T1, hEno1 (Homo sapiens, UniProt P06733); test: Enolase activity analysis (absorbance at 240 nm of PEP); format: biochemical
T1 construct: 6xHis; made in house; host or cells: E. coli BL21(DE3), inferred from 'same procedure' as CaEno1
T1 sequence (P06733 whole entry): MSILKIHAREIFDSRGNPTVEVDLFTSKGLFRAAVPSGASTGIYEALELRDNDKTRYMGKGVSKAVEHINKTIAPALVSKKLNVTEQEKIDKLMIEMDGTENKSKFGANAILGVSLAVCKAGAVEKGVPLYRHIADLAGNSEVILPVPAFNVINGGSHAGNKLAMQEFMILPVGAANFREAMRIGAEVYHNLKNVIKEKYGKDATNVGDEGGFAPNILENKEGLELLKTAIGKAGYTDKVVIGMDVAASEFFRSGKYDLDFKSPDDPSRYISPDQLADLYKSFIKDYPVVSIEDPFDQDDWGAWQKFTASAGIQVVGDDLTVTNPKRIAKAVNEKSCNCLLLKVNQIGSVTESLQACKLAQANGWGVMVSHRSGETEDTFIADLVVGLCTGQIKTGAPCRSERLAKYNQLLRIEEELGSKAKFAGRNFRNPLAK
Description: Enolase activity was determined by direct spectrophotometric assay via measuring the increase of absorbance at 240 nm of phosphoenolpyruvate (PEP) as described previously with some modifications ([54]). Briefly, the reaction buffer (pH 7.0) containing 10 mM imidazole, 200 mM KCl, and 0.5 mM MgAc in a final reaction volume of 100 μL was mixed with Eno1 (a final concentration of 30 nM), followed by the mixture of 2-phosphoglycerate (2-PG) (Yuanye Biotech Shanghai) with a final concentration of 1 mM. The enolase activity of Eno1 was evaluated by measuring the increase of absorbance (OD240) at room temperature for 10 min. […] The well-known enolase inhibitor sodium fluoride (NaF; Sangon Biotech) was initiated from 5 mM and used as a control ([29]). Inhibition curves were fitted by nonlinear regression (four parameters) using the GraphPad Prism software.

In the case of `O=c1cc(-c2ccccc2)oc2cc(O)c(O)c(O)c12` [BE, Baicalein], the antifungal activity (C. albicans; liquid YP medium with 3-PG (32 mg/mL)) is reported as “strong antifungal activity”, the antifungal activity (C. albicans; liquid YP medium with glucose (20 mg/mL)) is reported as “strong antifungal activity” and the antifungal activity (C. albicans; liquid YP medium with glycerol (2% vol/vol)) is reported as “no antifungal activity”. The antifungal activity (C. albicans; liquid YP medium with pyruvate (32 mg/mL)) was “no antifungal activity”, the “binding detected by SPR analysis” value [1] was “no binding” and the IC50 (hEno1) was 91.3 ± 3.1 µM.
